From patent US7829560B2, “1,4-disubstituted naphthalenes as inhibitors of P38 MAP kinase” (Arqule, Inc., priority 2004, dated 2010) come the findings set out here.

Molecules are shown by their SMILES.

The target in data set [1] is T1, p38α (Homo sapiens, UniProt Q16539).
T1 construct: p38 MAP Kinases are recombinant human full-length proteins with an amino-terminal GST fusion; GST (N); purchased Upstate Biotechnology Inc; host or cells: E. coli
Kind of data set: p38 MAP Kinase assay: inhibition of ATF2 phosphorylation, ELISA. Conditions: ATF2 phosphorylation; read-out: [ENZ] P38 ALPHA, IC50, ELISA. The class given is biochemical. An outline of the steps:
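In vitro phosphorylation of ATF2 at Thr69 by recombinant human GST-p38 MAP kinase, read by anti-phospho-ATF2 ELISA at 450 nm. Enzyme and compound pre-incubated 15 min at RT, then 30 min reaction at 37 °C with 40 μM ATP and 1.25 μM ATF2; buffer with or without 1% HSA (Method II or I).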

Data set [2] relates to TNFα release from THP-1 cells. Kind of data set: Inhibition of TNFα release from LPS-stimulated THP-1 cells, ELISA. The class given is cell-based. Conditions: Homo sapiens, THP-1, THP-1 cells, read-out: [CELL] THP-1, IC50, TNF ALPHA, ELISA. Put shortly:
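TNFα released into supernatant after 18 h of 10 μg/ml LPS stimulation was quantified by ELISA and IC50 taken as 50% reduction by non-linear regression. THP-1 cells (10^6/ml; medium with 10% FBS, serum-free or 1% HSA) saw compound for 30 min at 37 °C beforehand; final DMSO ≤0.5%.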

T1 sequence (Q16539 whole entry, the tested form may be a part): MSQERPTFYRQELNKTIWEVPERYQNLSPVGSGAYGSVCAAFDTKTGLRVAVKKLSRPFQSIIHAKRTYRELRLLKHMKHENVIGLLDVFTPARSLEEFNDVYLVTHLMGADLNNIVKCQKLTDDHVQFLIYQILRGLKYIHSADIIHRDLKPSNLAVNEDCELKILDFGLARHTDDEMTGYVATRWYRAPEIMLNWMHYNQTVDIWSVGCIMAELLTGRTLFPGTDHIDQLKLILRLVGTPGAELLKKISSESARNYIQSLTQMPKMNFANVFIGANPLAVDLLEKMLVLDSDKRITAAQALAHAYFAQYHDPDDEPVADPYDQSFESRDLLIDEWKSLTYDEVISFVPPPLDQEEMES

In turn, `COCCN(C)c1nccc(Oc2ccc(NC(=O)c3cc(F)cc(N4CCCCC4)c3)c3ccccc23)n1` [Compound B414, 3-Fluoro-N-[4-({2-[(2-methoxyethyl)(methyl)amino]pyrimidin-4-yl}oxy)-1-naphthyl]-5-piperidin-1-ylbenzamide] yielded a melting point of 81 to 82 °C. Besides, in data set [1], the IC50 stood at 28.9 nM. In addition, the IC50 in data set [2] was 580 nM.
Taken in the same sequence, the figures for `C[C@@H]1CN(c2nccc(Oc3ccc(NC(=O)c4cc(F)cc(N5CCCCC5)c4)c4ccccc34)n2)C[C@H](C)O1` [Compound B416, N-[4-({2-[(2R,6S)-2,6-Dimethylmorpholin-4-yl]pyrimidin-4-yl}oxy)-1-naphthyl]-3-fluoro-5-piperidin-1-ylbenzamide] were 174 to 176 °C, 50.2 nM and 472 nM.
`CN(Cc1ccco1)c1nccc(Oc2ccc(NC(=O)c3cc(F)cc(N4CCCCC4)c3)c3ccccc23)n1` [Compound B418, 3-Fluoro-N-[4-({2-[(2-furylmethyl)(methyl)amino]pyrimidin-4-yl}oxy)-1-naphthyl]-5-piperidin-1-ylbenzamide] gave a melting point of 155 to 156 °C. In addition, the IC50 in data set [1] amounted to 102 nM. In data set [2], the IC50 was 538 nM.
Taken in the same sequence, the figures for `CN(C)C1CCN(c2nccc(Oc3ccc(NC(=O)c4cc(F)cc(N5CCCCC5)c4)c4ccccc34)n2)C1` (stereo not drawn) [Compound B420, N-[4-({2-[3-(Dimethylamino)pyrrolidin-1-yl]pyrimidin-4-yl}oxy)-1-naphthyl]-3-fluoro-5-piperidin-1-ylbenzamide] were 108 to 110 °C, 15.2 nM and 225 nM.
Taken in the same sequence, the figures for `O=C1CN(c2nccc(Oc3ccc(NC(=O)c4cc(F)cc(N5CCCCC5)c4)c4ccccc34)n2)CCN1` [Compound B421, 3-Fluoro-N-(4-{[2-(3-oxopiperazin-1-yl)pyrimidin-4-yl]oxy}-1-naphthyl)-5-piperidin-1-ylbenzamide] were 140 to 142 °C, 17.8 nM and 689 nM.
Compound `CS(=O)(=O)CCNc1nccc(Oc2ccc(NC(=O)c3cc(F)cc(N4CCCCC4)c3)c3ccccc23)n1` [Compound B422, 3-Fluoro-N-{4-[(2-{[2-(methylsulfonyl)ethyl]amino}pyrimidin-4-yl)oxy]-1-naphthyl}-5-piperidin-1-ylbenzamide] registered a melting point of 102 to 104 °C. Moreover, the IC50 in data set [1] worked out at 1.6 nM. Moreover, the IC50 in data set [2] amounted to 63.2 nM.
In the case of `O=C(Nc1ccc(Oc2ccnc(N3CCC(F)(F)CC3)n2)c2ccccc12)c1cc(F)cc(N2CCCCC2)c1` [Compound B423, N-(4-{[2-(4,4-Difluoropiperidin-1-yl)pyrimidin-4-yl]oxy}-1-naphthyl)-3-fluoro-5-piperidin-1-ylbenzamide], the melting point is 172 to 174 °C. For the same compound, the IC50 in data set [1] is 111 nM. Moreover, the IC50 in data set [2] amounted to 773 nM.
Consider `Cc1ncsc1CCOc1ccc(NC(=O)c2cc(F)cc(N3CCCCC3)c2)c2ccccc12` [Compound B424, 3-Fluoro-N-{4-[2-(4-methyl-1,3-thiazol-5-yl)ethoxy]-1-naphthyl}-5-piperidin-1-ylbenzamide], for which the melting point was in the range of 221 to 222 °C. For the same compound, the IC50 in data set [1] was determined as 39.9 nM. Also, the IC50 in data set [2] was 2210 nM.
